Data taken from paper PMC9257626 (RSC Chemical Biology, 2022).
Where a name gives a salt, the structure may show the parent alone.

Target: GAPDH (endogenous, HeLa / Jurkat) (Homo sapiens, UniProt P04406)
Format: biochemical

GAPDH (endogenous, HeLa / Jurkat), sequence (P04406 2-335 limits assumed): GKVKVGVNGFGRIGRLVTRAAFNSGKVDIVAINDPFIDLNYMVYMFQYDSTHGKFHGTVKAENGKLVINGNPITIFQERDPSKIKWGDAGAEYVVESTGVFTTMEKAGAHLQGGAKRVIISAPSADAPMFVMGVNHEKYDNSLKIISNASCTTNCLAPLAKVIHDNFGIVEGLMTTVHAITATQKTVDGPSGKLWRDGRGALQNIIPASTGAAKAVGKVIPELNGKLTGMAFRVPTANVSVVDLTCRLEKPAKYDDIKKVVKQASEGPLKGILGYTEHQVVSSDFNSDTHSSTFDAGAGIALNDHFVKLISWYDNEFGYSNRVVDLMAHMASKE

| SMILES | loss of SEC1 labeling at 5 μM |
| --- | --- |
| COC(=O)/C=C/C(=O)OC [DMF, dimethyl fumarate] | 3-BP, IA and DMF showed complete loss of SEC1 labeling even at the lower concentration |
| O=C(O)C(=O)CBr [3-BP, 3-bromopyruvate] | 3-BP, IA and DMF showed complete loss of SEC1 labeling even at the lower concentration |
